Data published in paper PMC11952846, “The sterol-regulating human ARV1 binds cholesterol and phospholipids through its conserved ARV1 homology domain” (The Journal of Biological Chemistry, 2025).
Numbering of substitutions follows the chain as printed.

How the values were obtained:
6XHIS-ARV1-N98 = target: T1, 6XHIS-ARV1-N98 (Homo sapiens, UniProt Q9H2C2); assay: HTRF phospholipid lipid-binding assay; details: biotinylated lipid (Bio-PL) titrated, 0.75 μM protein; lipid labels mean the biotinylated lipids
T1 construct: made in house; host or cells: E. coli BL21
T1 sequence (Q9H2C2 1-98): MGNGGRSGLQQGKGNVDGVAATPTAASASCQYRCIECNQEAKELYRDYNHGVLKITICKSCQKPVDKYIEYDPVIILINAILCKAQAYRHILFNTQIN
Text: An HTRF assay was developed for 6XHIS-ARV1-N98-lipid binding. HTRF measures analyte interactions through fluorescence resonance energy transfer technology and time-resolved measurements ([53]). The interaction between two molecules can be quantified through binding each individual molecule involved with a fluorescent label and then analyzing the transfer of energy between the initial donor fluorophore and the secondary acceptor fluorophore. Following excitation of the first fluorophore, transfer of energy can only occur if the molecules bound with the fluorescent tags are within proximity to each other.
Assays were plated in 384-well flat bottom microplates (Greiner Bio, catalog #784075-25). Proteins were diluted using binding buffer (20 mM Hepes buffer, pH 7.2, containing 0.1% BSA, and 0.01% Tween20) to a stock concentration of 0.75 μM, and biotinylated phospholipids were dispensed, dried under nitrogen gas, and resuspended in binding buffer to a stock concentration of 50 μM. The lipid stock solution was diluted by 1:2 for a series of 12 serial dilutions. For the assay, in sequential order, 6 μl of binding buffer was loaded into the plate in triplicate for each dilution of phospholipid. To this, 2 μl of 0.75 μM 6XHIS-ARV1-N98 was added, followed by 2 μl of biotinylated phospholipid. Immediately following each addition loaded into the plate, the plate was centrifuged for 1 min at 1000 rpm to bring the contents to the bottom of the well. Next, detection antibodies were mixed with detection buffer (20 mM Hepes buffer, pH 8.5, containing 0.01% BSA and 200 mM KF). […] Plates were read on a PerkinElmer EnVision Xcite Multilabel plate reader.
Curves were logarithmically transformed and normalized to a common scale before being fit with a nonlinear regression of the agonist against the normalized response. […] For phospholipid competition analysis, IC50; M values were determined using nonlinear regression of the inhibitor against normalized response.

GST-ARV1-N98 C58/C61A = target: T2, GST-ARV1-N98 C58/C61A (Homo sapiens, UniProt Q9H2C2, C58A/C61A); assay: Liposome binding assay, site-directed mutant; details: PC:PL, sulfatide or PI(4)P liposomes
T2 construct: Expresses amino-terminal 98 amino acids of ARV1; made in house; host or cells: E. coli BL21 (pGEX-4T1)
T2 sequence (Q9H2C2 1-98 C58A/C61A): T1 sequence (Q9H2C2 1-98) with C58A, C61A
Procedure: (§1) Lyophilized lipids were reconstituted in chloroform at 10 mg/ml and stored in glass tubes with Teflon tops at −20 °C until use. One milliliter of 10 mg/ml stock was dried under a stream of nitrogen in a glass tube until a lipid cake/film was formed. The lipid cake was then rehydrated in BLT rehydration buffer (5 mM Tris/HCl, pH 7.4, containing 150 mM NaCl) to a concentration of 1 mg/ml. Lipid suspensions were subjected to three freeze/thaw cycles using a dry ice ethanol/[…] water bath to encapsulate the buffer and improve liposome formation. The suspension and lipid extruder were equilibrated to temperature for 10 min and liposomes were extruded using […] polycarbonate membranes (Avestin). Liposomes were made by mixing stock lipid PL (1 mg/ml) with PC (10 mg/ml).
(§2) Sulfatide liposomes were generated as previously described ([94]). All lipids were resuspended in organic solvents as per manufacturer’s instructions. Liposomes were prepared with mixing PC:PE:cholesterol:sulfatides (1:1:1:4) and subsequently dried down by lyophilization to obtain lipid films. Lipids were hydrated in 20 mM Tris–HCL, pH 6.8, containing 100 mM NaCl at a concentration of 1 mg/ml.
(§3) PI(4)P liposomes were generated as described by Knodler et al. ([95]), with some modifications. Briefly, liposomes were generated at a lipid concentration of 10 mg/ml. Liposomes contained PC (60%), PI (30%), PE (8%), and PI(4)P (2%). Lipid solution was dried down and resuspended in liposome buffer (20 mM Hepes–HCL, pH 7.4, containing 1 mM EDTA and 50 mM potassium acetate). Liposomes were formed by sonication on ice.
(§4) Liposomes were serial diluted in floatation buffer (100 mM NaCl, 2 mM EDTA, pH 5.5) to a final concentration of 0.1 mg/ml. Nine hundred microliters of liposome solution was placed in clear ultracentrifuge tubes and mixed with 100 μl of 0.01 μg/ml of protein. The liposome/protein solution was incubated at room temperature for 1 h with occasional shaking. An initial 100 μl of liposome/protein solution (liposomes) was removed and the remaining 900 μl was centrifuged at 50,000g for 20 min at 4 °C. The pellet was resuspended in 800 μl of fresh floatation buffer, centrifuged as above, and 800 μl of supernatant was removed (wash 1). This was repeated a second time and again 800 μl of supernatant was removed (wash 2). The final pellet was resuspended in 100 μl of floatation buffer plus SDS treatment buffer (pellet). Thirty microliters of each fraction was run on a 15% SDS-PAGE gel and probed with an anti-GST monoclonal antibody at a 1:1500 dilution.

GST-ARV1-N98 N94A = target: T3, GST-ARV1-N98 N94A (Homo sapiens, UniProt Q9H2C2, N94A); assay: Liposome binding assay, site-directed mutant; details: PC:PL, sulfatide or PI(4)P liposomes
T3 construct: Expresses amino-terminal 98 amino acids of ARV1; made in house; host or cells: E. coli BL21 (pGEX-4T1)
T3 sequence (Q9H2C2 1-98 N94A): T1 sequence (Q9H2C2 1-98) with N94A
Procedure: as §1, §2, §3, §4

GST-ARV1-N98 N94Q = target: T4, GST-ARV1-N98 N94Q (Homo sapiens, UniProt Q9H2C2, N94Q); assay: Liposome binding assay, site-directed mutant; details: PI(4)P liposomes
T4 construct: Expresses amino-terminal 98 amino acids of ARV1; made in house; host or cells: E. coli BL21 (pGEX-4T1)
Procedure: as §1, §2, §3, §4

GST-ARV1-N98 K67A = target: T5, GST-ARV1-N98 K67A (Homo sapiens, UniProt Q9H2C2, K67A); assay: Liposome binding assay, site-directed mutant; details: PC:PL, sulfatide liposomes
T5 construct: Expresses amino-terminal 98 amino acids of ARV1; made in house; host or cells: E. coli BL21 (pGEX-4T1)
T5 sequence (Q9H2C2 1-98 K67A): T1 sequence (Q9H2C2 1-98) with K67A
Procedure: as §1, §2, §3, §4

GST-ARV1-N98 K84A = target: T6, GST-ARV1-N98 K84A (Homo sapiens, UniProt Q9H2C2, K84A); assay: Liposome binding assay, site-directed mutant; details: PE liposomes
T6 construct: Expresses amino-terminal 98 amino acids of ARV1; made in house; host or cells: E. coli BL21 (pGEX-4T1)
Procedure: as §1, §2, §3, §4

T6 sequence (Q9H2C2 1-98 K84A): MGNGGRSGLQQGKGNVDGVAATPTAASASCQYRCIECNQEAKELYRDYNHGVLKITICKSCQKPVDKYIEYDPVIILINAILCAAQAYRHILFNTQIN
T4 sequence (Q9H2C2 1-98 N94Q): as the sequence (Q9H2C2 1-98 K84A) above, with A84K, N94Q counted along it

EC50 (6XHIS-ARV1-N98) | Compound | liposome binding (GST-ARV1-N98 C58/C61A) | liposome binding (GST-ARV1-N98 N94A) | liposome binding (GST-ARV1-N98 K67A) | other results
1.1 µM | phosphatidylcholine [PC] | – | – | – | –
– | CCCCCC(=O)O[C@H](COC(=O)CCCCCNC(=O)CCCC[C@@H]1SC[C@@H]2NC(=O)N[C@@H]21)COP(=O)(O)O[C@H]1[C@H](O)[C@@H](O)[C@H](OP(=O)(O)O)[C@@H](O)[C@H]1O [reference compound] | did not bind | lost the ability to bind | – | liposome binding (GST-ARV1-N98 N94Q): lost the ability to bind
5.3 µM | phosphatidylethanolamine [PE] | – | – | showed binding | liposome binding (GST-ARV1-N98 K84A): showed binding
– | CCCCCCCC/C=C\CCCCCCCC(=O)OC[C@H](COP(=O)(O)OCC(O)CO)OC(=O)CCCCCCC/C=C\CCCCCCCC (stereo partly shown) [PG, phosphatidylglycerol] | – | very weak | unable to bind | –
– | CCCCCCCCCCCCCCCC(=O)OC[C@H](COP(=O)(O)O)OC(=O)CCCCCCCCCCCCCCC [PA, phosphatidic acid] | did not bind | – | – | –
